# Laboratory results: publication PMC12203311, “Design, synthesis, in silico and in vitro evaluation of pyrrole–indole hybrids as dual tubulin and aromatase inhibitors with potent anticancer activities” (RSC Advances, 2025)
# Where two headings read alike, the source gives them in different places.
# Experiments:
# MOLT-4 = test: NCI60 five-dose screen; assay type: cell-based; conditions: Homo sapiens, MOLT-4, leukemia; for CC50: read-out: LC50 (the source's name)
# EKVX = test: NCI60 five-dose screen; assay type: cell-based; conditions: Homo sapiens, NSC lung cancer; for CC50: read-out: LC50 (the source's name)
# HOP-62 = test: NCI60 five-dose screen; assay type: cell-based; conditions: Homo sapiens, HOP-62, NSC lung cancer; for CC50: read-out: LC50 (the source's name)
# HOP-92 = test: NCI60 five-dose screen; assay type: cell-based; conditions: Homo sapiens, HOP-92, NSC lung cancer; for CC50: read-out: LC50 (the source's name)
# NCI-H226 = test: NCI60 five-dose screen; assay type: cell-based; conditions: Homo sapiens, NCI-H226, NSC lung cancer; for CC50: read-out: LC50 (the source's name)
# NCI-H322M = test: NCI60 five-dose screen; assay type: cell-based; conditions: Homo sapiens, NSC lung cancer; for CC50: read-out: LC50 (the source's name)
# NCI-H460 = test: NCI60 five-dose screen; assay type: cell-based; conditions: Homo sapiens, NCI-H460, NSC lung cancer; for CC50: read-out: LC50 (the source's name)
# NCI-H522 = test: NCI60 five-dose screen; assay type: cell-based; conditions: Homo sapiens, NCI-H522, NSC lung cancer; for CC50: read-out: LC50 (the source's name)
# HCT-15 = test: NCI60 five-dose screen; assay type: cell-based; conditions: Homo sapiens, HCT-15, colon cancer; for CC50: read-out: LC50 (the source's name)
# HT29 = test: NCI60 five-dose screen; assay type: cell-based; conditions: Homo sapiens, HT-29, HT29, colon cancer; for CC50: read-out: LC50 (the source's name)
# SNB-19 = test: NCI60 five-dose screen; assay type: cell-based; conditions: Homo sapiens, SNB-19, CNS cancer; for CC50: read-out: LC50 (the source's name)
# LOX IMVI = test: NCI60 five-dose screen; assay type: cell-based; conditions: Homo sapiens, melanoma; for CC50: read-out: LC50 (the source's name)
# M14 = test: NCI60 five-dose screen; assay type: cell-based; conditions: Homo sapiens, M14, melanoma; for CC50: read-out: LC50 (the source's name)
# UACC-257 = test: NCI60 five-dose screen; assay type: cell-based; conditions: Homo sapiens, UACC-257, melanoma; for CC50: read-out: LC50 (the source's name)
# OVCAR-8 = test: NCI60 five-dose screen; assay type: cell-based; conditions: Homo sapiens, OVCAR-8, ovarian cancer; for CC50: read-out: LC50 (the source's name)
# NCI/ADR-RES = test: NCI60 five-dose screen; assay type: cell-based, human; conditions: ovarian cancer; for CC50: read-out: LC50 (the source's name)
# 786-0 = test: NCI60 five-dose screen; assay type: cell-based; conditions: Homo sapiens, 786-0, renal cancer; for CC50: read-out: LC50 (the source's name)
# CAKI-1 = test: NCI60 five-dose screen; assay type: cell-based; conditions: Homo sapiens, CAKI-1, renal cancer; for CC50: read-out: LC50 (the source's name)
# BT-549 = test: NCI60 five-dose screen; assay type: cell-based; conditions: Homo sapiens, BT-549, breast cancer; for CC50: read-out: LC50 (the source's name)
# Human CYP19 (aromatase) = biological target: T1, Human CYP19 (aromatase) (Homo sapiens, UniProt P11511); test: Aromatase inhibition assay (DBF fluorometric substrate); assay type: biochemical; conditions: active defined as IC50 < 12.5 µM
# T1 construct: purchased GENTEST, Woburn, MA 456260; host or cells: baculovirus/insect cells
# T1 sequence (P11511 1-503): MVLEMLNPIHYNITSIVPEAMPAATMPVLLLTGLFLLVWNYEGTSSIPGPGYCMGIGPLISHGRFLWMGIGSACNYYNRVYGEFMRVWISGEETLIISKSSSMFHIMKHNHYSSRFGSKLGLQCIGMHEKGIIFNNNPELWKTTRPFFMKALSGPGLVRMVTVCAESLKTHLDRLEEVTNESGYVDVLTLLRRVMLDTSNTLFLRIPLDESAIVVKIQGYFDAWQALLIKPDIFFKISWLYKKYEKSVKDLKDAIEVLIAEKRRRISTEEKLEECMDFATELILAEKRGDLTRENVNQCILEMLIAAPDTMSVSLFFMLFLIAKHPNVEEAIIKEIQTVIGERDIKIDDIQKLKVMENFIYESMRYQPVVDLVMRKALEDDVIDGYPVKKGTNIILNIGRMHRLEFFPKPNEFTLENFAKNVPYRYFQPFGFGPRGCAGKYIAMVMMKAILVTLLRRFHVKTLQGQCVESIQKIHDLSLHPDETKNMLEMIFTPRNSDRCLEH
# Procedure, shortened: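 Supersomes expressing human CYP19 plus oxidoreductase (baculovirus/insect cell) with fluorometric substrate DBF; cofactor mixture pre-incubated 10 min at 37 °C, reaction run 30 min at 37 °C, stopped with NaOH. Fluorescence read at ex 490/em 530 nm.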
# [1] = Cytotoxicity MTT assay, L929; assay type: cell-based, mouse; conditions: mouse, L929 fibroblast cells; MTT, 48 hours
# Procedure, shortened: (§1)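 Cells in DMEM with 10% FBS and penicillin/streptomycin (37 °C, 5% CO2) were seeded at 10 000 per well, grown overnight, then exposed to compounds for 48 hours. MTT (0.5 mg mL^−1) was added for 3 hours, formazan dissolved in DMSO, and absorbance read at 570 nm; viability was expressed against DMSO vehicle.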
# [2] = test system: L929 normal mouse fibroblast cell line; test: Cytotoxicity MTT assay, L929; assay type: cell-based; conditions: IC50 (L929)/IC50 (T47D)
# Procedure, shortened: as §1
compound,measurement,setting,value
"O=C(N/N=C/c1cc(Br)c[nH]1)c1[nH]c2ccc(Br)cc2c1-c1ccccc1 [Derivative 3e, (E)-5-Bromo-N′-((4-bromo-1H-pyrrol-2-yl)methylene)-3-phenyl-1H-indole-2-carbohydrazide]",GI50,MOLT-4,0.375 µM
same,CC50,MOLT-4,> 100 µM
same,GI50,EKVX,0.62 µM
same,CC50,EKVX,34.3 µM
same,GI50,HOP-62,0.546 µM
same,CC50,HOP-62,> 100 µM
same,GI50,HOP-92,1.51 µM
same,CC50,HOP-92,26.3 µM
same,GI50,NCI-H226,0.382 µM
same,CC50,NCI-H226,29.9 µM
same,GI50,NCI-H322M,0.578 µM
same,CC50,NCI-H322M,38.8 µM
same,GI50,NCI-H460,0.353 µM
same,CC50,NCI-H460,43.2 µM
same,GI50,NCI-H522,0.185 µM
same,CC50,NCI-H522,19.1 µM
same,GI50,HCT-15,0.28 µM
same,CC50,HCT-15,13.5 µM
same,GI50,HT29,0.345 µM
same,CC50,HT29,8.24 µM
same,GI50,SNB-19,0.33 µM
same,CC50,SNB-19,34.5 µM
same,GI50,LOX IMVI,0.36 µM
same,CC50,LOX IMVI,6.98 µM
same,GI50,M14,0.27 µM
same,CC50,M14,20.2 µM
same,GI50,UACC-257,1.09 µM
same,CC50,UACC-257,47 µM
same,GI50,OVCAR-8,0.304 µM
same,CC50,OVCAR-8,18.2 µM
same,GI50,NCI/ADR-RES; Homo sapiens,0.197 µM
same,CC50,NCI/ADR-RES; Homo sapiens,0.97 µM
same,CC50,NCI/ADR-RES,0.971 µM
same,GI50,786-0,0.727 µM
same,CC50,786-0,55.9 µM
same,GI50,CAKI-1,0.329 µM
same,CC50,CAKI-1,29 µM
same,GI50,BT-549,0.314 µM
same,CC50,BT-549,36.2 µM
same,IC50,Human CYP19 (aromatase),4 ± 1 µM
same,IC50 at 48 h,[1],22.3 ± 11.9 µM
same,Selectivity index (SI),[2],9.29
"O=C(N/N=C/c1cc(Br)c(Br)[nH]1)c1[nH]c2ccc(Br)cc2c1-c1ccccc1 [Derivative 3f, (E)-5-Bromo-N′-((4,5-dibromo-1H-pyrrol-2-yl)methylene)-3-phenyl-1H-indole-2-carbohydrazide]",GI50,MOLT-4,3.38 µM
same,CC50,MOLT-4,> 100 µM
same,GI50,EKVX,3.45 µM
same,CC50,EKVX,44.8 µM
same,GI50,HOP-62,3.52 µM
same,CC50,HOP-62,> 100 µM
same,GI50,HOP-92,1.88 µM
same,CC50,HOP-92,46 µM
same,GI50,NCI-H226,2.28 µM
same,CC50,NCI-H226,32.5 µM
same,GI50,NCI-H322M,3.73 µM
same,CC50,NCI-H322M,62.8 µM
same,GI50,NCI-H460,2.53 µM
same,CC50,NCI-H460,32.7 µM
same,GI50,NCI-H522,0.623 µM
same,CC50,NCI-H522,23.2 µM
same,GI50,HCT-15,2.7 µM
same,CC50,HCT-15,33.1 µM
same,GI50,HT29,2.33 µM
same,CC50,HT29,20.8 µM
same,GI50,SNB-19,3.47 µM
same,CC50,SNB-19,39.3 µM
same,GI50,LOX IMVI,2.31 µM
same,CC50,LOX IMVI,31.8 µM
same,GI50,M14,2.81 µM
same,CC50,M14,66.1 µM
same,GI50,UACC-257,3.24 µM
same,CC50,UACC-257,45.7 µM
same,GI50,OVCAR-8,1.98 µM
same,CC50,OVCAR-8,17.2 µM
same,GI50,NCI/ADR-RES; Homo sapiens,1.14 µM
same,CC50,NCI/ADR-RES; Homo sapiens,9.73 µM
same,GI50,786-0,4.91 µM
same,CC50,786-0,64.1 µM
same,GI50,CAKI-1,1.38 µM
same,CC50,CAKI-1,40.9 µM
same,GI50,BT-549,3.69 µM
same,CC50,BT-549,90.8 µM
same,IC50,Human CYP19 (aromatase),1.5 ± 0.3 µM
same,IC50 at 48 h,[1],47.9 ± 0.5 µM
same,Selectivity index (SI),[2],2.51
"O=C(N/N=C/c1[nH]ccc1Cl)c1[nH]c2ccc(Br)cc2c1-c1ccccc1 [Derivative 3g, (E)-5-Bromo-N′-((3-chloro-1H-pyrrol-2-yl)methylene)-3-phenyl-1H-indole-2-carbohydrazide]",GI50,MOLT-4,1.71 µM
same,CC50,MOLT-4,> 100 µM
same,GI50,EKVX,2.66 µM
same,CC50,EKVX,38.1 µM
same,GI50,HOP-62,3.8 µM
same,CC50,HOP-62,60.8 µM
same,GI50,HOP-92,2.79 µM
same,CC50,HOP-92,50.1 µM
same,GI50,NCI-H226,1.44 µM
same,CC50,NCI-H226,32.1 µM
same,GI50,NCI-H322M,3.14 µM
same,CC50,NCI-H322M,48.8 µM
same,GI50,NCI-H460,0.448 µM
same,CC50,NCI-H460,34.3 µM
same,GI50,NCI-H522,0.233 µM
same,CC50,NCI-H522,20.4 µM
same,GI50,HCT-15,0.465 µM
same,CC50,HCT-15,34.3 µM
same,GI50,HT29,0.401 µM
same,CC50,HT29,58.5 µM
same,GI50,SNB-19,1.06 µM
same,CC50,SNB-19,35.4 µM
same,GI50,LOX IMVI,0.555 µM
same,CC50,LOX IMVI,29.4 µM
same,GI50,M14,0.689 µM
same,CC50,M14,45.4 µM
same,GI50,UACC-257,0.738 µM
same,CC50,UACC-257,52 µM
same,GI50,OVCAR-8,0.481 µM
same,CC50,OVCAR-8,27.7 µM
same,GI50,NCI/ADR-RES; Homo sapiens,0.219 µM
same,CC50,NCI/ADR-RES; Homo sapiens,10.5 µM
same,GI50,786-0,2.58 µM
same,CC50,786-0,50.2 µM
same,GI50,CAKI-1,0.445 µM
same,CC50,CAKI-1,36.9 µM
same,GI50,BT-549,3.56 µM
same,CC50,BT-549,46.8 µM
same,IC50,Human CYP19 (aromatase),2.6 ± 0.5 µM
same,IC50 at 48 h,[1],20.1 ± 10.3 µM
same,Selectivity index (SI),[2],2.45
